Active and inactive are the calls of the source.
Columns and labels:
[1] = Therapeutic index, ratio of TC50 human HeLa cells expressing CD4-LTR to EC50 for HIV1 entry inhibition in human HeLa cells expressing CD4-LTR; assay type: cell-based; conditions: read-out: TI
[2] = Therapeutic index, ratio of TC50 for human CEM-SS cells to EC50 for HIV2 ROD infected in human CEM-SS cells; assay type: cell-based; conditions: CEM-SS cells, read-out: TI
[3] = system: Human immunodeficiency virus 1; experiment: Antiviral activity against HIV1 infected in human HeLa cells expressing CD4-LTR assessed as inhibition of viral entry-related beta galactosidase expression treated for 2 hrs followed by drug wash out measured after 48 hrs by MAGI assay; assay type: functional, organism-based; conditions: for EC50: Human immunodeficiency virus 1, HeLa
[4] = target: Human immunodeficiency virus type 1 reverse transcriptase (Human immunodeficiency virus 1, UniProt Q72547, K103N); experiment: Inhibition of HIV1 reverse transcriptase K103N mutant assessed as 32P-labeled GMP incorporation into nascent DNA strand
[5] = Cytotoxicity against human HeLa cells expressing CD4-LTR by XTT assay; assay type: cell-based; conditions: read-out: TC50 (the source's name)
[6] = system: Human immunodeficiency virus 2; experiment: Antiviral activity against HIV2 assessed as inhibition of viral single round replication at early time point; assay type: functional, organism-based
[7] = system: Human immunodeficiency virus 2; experiment: Antiviral activity against HIV2 assessed as inhibition of viral replication treated at time points after viral entry into host cells; assay type: functional, organism-based
[8] = Cytotoxicity against human CEM-SS cells by XTT assay; assay type: cell-based; conditions: read-out: TC50 (the source's name)
[9] = target: Human immunodeficiency virus type 1 reverse transcriptase (Human immunodeficiency virus 1, UniProt Q72547); experiment: Inhibition of wild type HIV1 reverse transcriptase assessed as 32P-labeled GMP incorporation into nascent DNA strand
[10] = system: Human immunodeficiency virus 1; experiment: Antiviral activity against HIV1 RF infected in human CEM-SS cells assessed as inhibition of virus-induced cytopathic effect by XTT assay; assay type: functional, organism-based; conditions: Human immunodeficiency virus 1, RF
[11] = system: Human immunodeficiency virus 2; experiment: Inhibition of HIV2 reverse transcriptase assessed as 32P-labeled GMP incorporation into nascent DNA strand at highest concentration
[12] = Therapeutic index, ratio of TC50 for human CEM-SS cells to EC50 for HIV1 RF infected in human CEM-SS cells; assay type: cell-based; conditions: read-out: TI
[13] = system: Human immunodeficiency virus 1; experiment: Antiviral activity against HIV1 infected in human CEM-SS cells assessed as inhibition of viral replication and virus-induced cytopathic effect by dose-response curve analysis; assay type: functional; conditions: Human immunodeficiency virus 1, CEM-SS
[14] = system: Human immunodeficiency virus 2; experiment: Antiviral activity against HIV2 infected in human CEM-SS cells assessed as inhibition of viral replication and virus-induced cytopathic effect by dose-response curve analysis; assay type: functional; conditions: Human immunodeficiency virus 2, CEM-SS
HeLa = experiment: Inhibition of HIV1 gp120/CD4 interaction assessed as inhibition of gp120 and gp41 coexpressing human HL2/3 cell fusion to CD4 expressing human HeLa cells treated for 2 hrs measured after 48 hrs by chemiluminescence assay; assay type: cell-based; conditions: Human immunodeficiency virus 1
[15] = system: Human immunodeficiency virus 2; experiment: Inhibition of HIV2 reverse transcriptase
[16] = system: Simian immunodeficiency virus; experiment: Antiviral activity against SIV MAC251 infected in human 174xCEM cells assessed as inhibition of virus-induced cytopathic effect; assay type: functional, organism-based
[17] = system: Human immunodeficiency virus 2; experiment: Antiviral activity against HIV2 ROD infected in human CEM-SS cells assessed as inhibition of virus-induced cytopathic effect by XTT assay; assay type: functional, organism-based, ISOLATE ROD; conditions: Human immunodeficiency virus 2, ISOLATE ROD, CEM-SS; read-out: EC50
[18] = system: Human immunodeficiency virus 1; experiment: Antiviral activity against HIV1 infected in human HeLa cells expressing CD4-LTR assessed as inhibition of viral entry-related beta galactosidase expression pretreated 2 hrs before viral infection measured after 48 hrs of infection by MAGI assay; assay type: functional, organism-based
[19] = system: Human immunodeficiency virus 1; experiment: Antiviral activity against HIV1 infected in human HeLa cells expressing CD4-LTR assessed as inhibition of viral entry-related beta galactosidase expression at > 10 ug/ml followed by drug wash out and viral infection measured after 48 hrs by MAGI assay; assay type: functional, organism-based
[20] = system: Human immunodeficiency virus 1; experiment: Antiviral activity against HIV1 infected in human HeLa cells expressing CD4-LTR assessed as inhibition of viral entry-related beta galactosidase expression at 0.2 to 0.4 uM followed by drug wash out and viral infection measured after 48 hrs by MAGI assay; assay type: functional, organism-based
[21] = system: Human immunodeficiency virus 1; experiment: Antiviral activity against HIV1 infected in human HeLa cells expressing CD4-LTR assessed as inhibition of viral entry-related beta galactosidase expression at > 0.5 uM followed by drug wash out and viral infection measured after 48 hrs by MAGI assay; assay type: functional, organism-based
[22] = system: Human immunodeficiency virus 1; experiment: Antiviral activity against HIV1 infected in human HeLa cells expressing CD4-LTR assessed as inhibition of viral entry-related beta galactosidase expression at 0.5 uM followed by drug wash out and viral infection measured after 48 hrs by MAGI assay; assay type: functional, organism-based

| SMILES | selectivity ratio [1] | selectivity ratio [2] | EC50 [3] [µM] | IC50 [4] [µM] | CC50 [5] [µM] | Activity [6] | Activity [7] | CC50 [8] [µM] | IC50 [9] [µM] | EC50 [10] [µM] | Activity [11] | selectivity ratio [12] | EC99 [13] [µM] | EC99 [14] [µM] | inhibition (HeLa) | Activity [15] | Activity [16] | EC50 [17] [µM] | further results |
| --- | --- | --- | --- | --- | --- | --- | --- | --- | --- | --- | --- | --- | --- | --- | --- | --- | --- | --- | --- |
| Cc1cc(C)cc(C(=O)c2c(C(C)C)c(=O)[nH]c(=O)n2CC2=CCCC2)c1 | 2290 | 122 | 0.009 | 1.6 | 20.8 | Active | inactive | 16.7 | 0.02 | 0.0001 | inactive | 523000 | 0.001 | 1 | inactive | inactive | inactive | 0.1 |  |
| Cc1cc(C)cc(C(=O)c2c(C(C)C)c(=O)[nH]c(=O)n2CC2CC2)c1 | 101000 | 13000 | 0.012 | 2.7 | 1180 | Active | inactive | 1200 | 1.97 | 0.0005 | inactive | 2.55e+06 | 0.001 | 10 | inactive | inactive | inactive | 0.1 |  |
| Cc1cc(C)cc(C(=O)c2c(C(C)C)c(=O)[nH]c(=O)n2CC2CC=CC2)c1 | 2690 | > 75 | 0.41 | 23 | 1120 | Active | inactive | 1100 | 0.651 | 0.0022 | inactive | 491000 | 1 | 100 | inactive | inactive | inactive | 15.5 |  |
| CCc1c(Oc2cc(C)cc(C)c2)n(CC2CC2)c(=O)[nH]c1=O | 202000 | > 2100 | 0.006 | 0.21 | 1280 | Active | inactive | 1300 | 0.016 | 0.006 | inactive | 215000 | 1 | 10 | inactive | inactive | inactive | 0.6 |  |
| COc1cc(-c2ccc(/N=N/c3ccc4c(S(=O)(=O)O)cc(S(=O)(=O)O)c(N)c4c3O)c(OC)c2)ccc1/N=N/c1ccc2c(S(=O)(=O)O)cc(S(=O)(=O)O)c(N)c2c1O |  |  |  |  |  |  |  |  |  |  |  |  |  |  |  |  |  |  | Activity [3]: Active; Activity [18]: Active; Activity [19]: inactive |
| CCc1c(C(=O)c2cc(C)cc(C)c2)n(CC2=CCCC2)c(=O)[nH]c1=O | 536 | 42.6 | 0.11 | 1.93 | 60.5 | Active | inactive | 60.5 | 0.088 | 0.0025 | inactive | 23700 | 1 |  | inactive | inactive | inactive | 1.4 |  |
| O=C1Nc2ccc(Cl)cc2[C@@](C#CC2CC2)(C(F)(F)F)O1 [EFAVIRENZ] |  |  |  |  |  |  |  |  |  |  |  |  |  |  |  |  |  |  | Activity [3]: 0.02 µM; Activity [20]: Active |
| Cc1cn([C@H]2C[C@H](N=[N+]=[N-])[C@@H](CO)O2)c(=O)[nH]c1=O |  |  |  |  |  |  |  |  |  |  |  |  |  |  |  |  |  |  | Activity [21]: inactive |
| Cc1cc(C)cc(Oc2c(C(C)C)c(=O)[nH]c(=O)n2Cc2ccccc2)c1 | 4180 | 278 | 0.009 | 0.975 | 38.2 | Active | inactive | 38.2 | 0.114 | 0.014 | inactive | 2720 | 1 |  | inactive | inactive | inactive | 0.1 |  |
| CCc1c(C(=O)c2cc(C)cc(C)c2)n(CCC2C=CCC2)c(=O)[nH]c1=O (stereo not drawn) | 1310 | 421 | 0.07 | 1.88 | 92 | Active | inactive | 92 | 0.075 | 0.054 | inactive | 1680 | 1 |  | inactive | inactive | inactive | 0.2 |  |
| CCc1c(C(=O)c2cc(C)cc(C)c2)n(CC2CC=CC2)c(=O)[nH]c1=O | 15700 | > 71 | 0.07 | 2.6 | 1120 | Active | inactive | 1100 | 0.179 | 0.002 | inactive | 553000 | 1 | 100 | inactive | inactive | inactive | 16 | Activity [22]: inactive |

From ChEMBL document CHEMBL1152465, “Comparative evaluation of the inhibitory activities of a series of pyrimidinedione congeners that inhibit human immunodeficiency virus types 1 and 2” (Antimicrob Agents Chemother, 2008)
